PubChem BioAssay (NCI)
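48-hour exposure; five concentrations; linearly interpolated endpoints. Here, GI50 denotes the concentration required for 50% inhibition of growth. TGI is the concentration that stops growth completely.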

Columns and labels:
Test in all cases: NCI tumour cell line growth inhibition, 48 h
LOX IMVI melanoma = tested on: LOX IMVI melanoma
OVCAR-8 ovarian = tested on: OVCAR-8 ovarian
HCT-15 colon = tested on: HCT-15 colon
RPMI-8226 leukemia = tested on: RPMI-8226 leukemia
A549 NSCLC = tested on: A549 NSCLC
CAKI-1 renal = tested on: CAKI-1 renal
MOLT-4 leukemia = tested on: MOLT-4 leukemia
K-562 leukemia = tested on: K-562 leukemia
SW-620 colon = tested on: SW-620 colon
SK-MEL-5 melanoma = tested on: SK-MEL-5 melanoma

SMILES | TGI (LOX IMVI melanoma) | TGI (OVCAR-8 ovarian) | TGI (HCT-15 colon) | TGI (RPMI-8226 leukemia) | TGI (A549 NSCLC) | TGI (CAKI-1 renal) | TGI (MOLT-4 leukemia) | TGI (K-562 leukemia) | TGI (SW-620 colon) | TGI (SK-MEL-5 melanoma) | GI50 (OVCAR-8 ovarian)
OCCNc1nc2c(N3CCCC3)nc(N3CCNCC3)nc2nc1NCc1ccccc1 | 29.1 µM | 30.5 µM | 32.2 µM | 38.4 µM | 31.4 µM | 31.4 µM | 33.3 µM | 30.1 µM | 42.4 µM | 26.1 µM | 
C/C(=N\n1c(Cc2ccccc2)n[nH]c1=O)c1ccc([N+](=O)[O-])cc1 | > 100 µM | > 100 µM | > 100 µM | > 100 µM | > 100 µM | > 100 µM | > 100 µM | > 100 µM | > 100 µM | > 100 µM | 
C=CCc1cccc2cc(C(=O)Nc3nc(C45CC6CC(CC(C6)C4)C5)cs3)c(=O)oc12 | 42.8 µM | > 100 µM | > 100 µM | > 100 µM | > 100 µM | 41.4 µM | > 100 µM | > 100 µM | > 100 µM | > 100 µM | 
COc1cccc(/C=N/n2c(Cc3ccc(Cl)cc3)n[nH]c2=O)c1 | > 100 µM | 36.7 µM | > 100 µM | > 100 µM | > 100 µM | > 81.9 µM | > 100 µM | > 100 µM | > 100 µM | > 100 µM | 
CCOC(=O)C1=CN(C(=O)c2ccccc2)CCC1Cc1ccccc1 (stereo unspecified) | 34.4 µM | 88.4 µM | > 100 µM | 36.6 µM | > 100 µM | > 100 µM | 38.5 µM | 77.3 µM | > 100 µM | 28.3 µM | 
CC(=O)N1C(OCc2ccccc2)CCN1c1ccccc1 (stereo unspecified) | > 10 µM | > 10 µM | > 10 µM | > 10 µM | > 10 µM | > 10 µM | > 10 µM | > 10 µM | > 10 µM | > 10 µM | 
O=C1OC(C(O)C(O)C(O)CO)C(O)C1O (stereo unspecified) | > 100 µM | > 100 µM | > 100 µM | > 100 µM | > 100 µM | > 100 µM | > 100 µM | > 100 µM | > 100 µM | > 100 µM | 
CN(/N=C/c1ccc(Cl)c(Cl)c1)C1=NCCN1 | 27.7 µM | > 100 µM | > 100 µM | 60.9 µM | > 100 µM | 37.8 µM | 59.8 µM | > 100 µM | 54.4 µM | 30.7 µM | 
Cc1ccsc1/C=N/Nc1ccccn1 | > 100 µM | > 100 µM | > 100 µM | 56.6 µM | > 100 µM | > 100 µM | 73.9 µM | > 100 µM | > 100 µM | 54.4 µM | 
Cc1ccc(CC(=O)Nc2ccc(NC(=O)CNC(=O)/C=C/c3ccc(-c4ccccc4)cc3)cc2C(=O)c2ccccc2)cc1 | 13.4 µM | 3.27 µM | 13.2 µM | 29.2 µM | 5.37 µM | 20.4 µM | 15.3 µM | 10.3 µM | 19.5 µM | 6.32 µM | 
CC(C)C[C@H](NC(=O)[C@H](CCc1ccccc1)NC(=O)c1ccc2ccccc2n1)B(O)O | 0.247 µM | 0.86 µM | 0.52 µM | > 39.1 µM | 13.4 µM | 4.73 µM | 4.76 µM | > 100 µM | < 0.0338 µM | 0.647 µM | 
Nc1ccc(-c2nc3cc(F)ccc3s2)cc1 | > 100 µM | > 100 µM | > 85.7 µM | > 100 µM | > 100 µM | > 100 µM | > 100 µM | > 100 µM | > 100 µM | > 100 µM | 
C/C(=C/c1c(C)[nH]c(=O)[nH]c1=O)C(=O)O | > 1380 µM | > 1380 µM | > 1380 µM | > 1380 µM | > 1380 µM | > 1380 µM | > 1380 µM | > 1380 µM | > 1380 µM | > 1370 µM | > 1380 µM
Cc1nc2sccn2c1C(=O)OCCOCCOCCOCCOC(=O)c1c(C)nc2sccn12 | > 100 µM | > 100 µM | > 100 µM | > 100 µM | > 100 µM | > 100 µM | > 100 µM | > 100 µM | > 100 µM | 35.5 µM | 
COC1=C(OC)C(=O)C(Cc2c(Cl)nc3n2CCS3)=C(C)C1=O | 29.3 µM | 29.8 µM | 39.8 µM | 26.9 µM | 40.6 µM | 46.7 µM | 3.28 µM | 39.9 µM | 33.8 µM | 23.9 µM | 
C=C(COC(=O)C(C)C)[C@H]1Oc2ccc(C(C)=O)cc2[C@@H]1OC(=O)C(C)C | > 100 µM | > 100 µM | > 100 µM | > 100 µM | > 100 µM | > 100 µM | > 100 µM | > 100 µM | > 100 µM | > 100 µM | 
CN1N(c2ccccc2)C(=O)C2=NC=C(C#N)C(=N)C21C (stereo unspecified) | > 100 µM | > 100 µM | > 100 µM | > 100 µM | > 100 µM | > 100 µM | > 100 µM | > 100 µM | > 100 µM | > 100 µM | 
COc1cc(C2c3cc4c(cc3OC(N3CCOCC3)C2C)OCO4)cc(OC)c1OC(C)=O (stereo unspecified) | > 100 µM | > 100 µM | > 100 µM | > 100 µM | > 100 µM | > 100 µM | > 100 µM | 49.2 µM | > 100 µM | > 51 µM | 

SMILES | TGI (LOX IMVI melanoma) | TGI (OVCAR-8 ovarian) | TGI (HCT-15 colon) | TGI (RPMI-8226 leukemia) | TGI (A549 NSCLC) | TGI (CAKI-1 renal) | TGI (MOLT-4 leukemia) | TGI (K-562 leukemia) | TGI (SW-620 colon) | TGI (SK-MEL-5 melanoma) | GI50 (OVCAR-8 ovarian)
COc1cnnc2c(C)c(-c3ccccc3)nn12 | > 100 µM | > 100 µM | > 100 µM | > 100 µM | > 100 µM | > 100 µM | > 100 µM | > 100 µM | > 100 µM | > 100 µM | 
Cc1ccc(NC(=O)CC(=O)N2N=C(c3ccccc3)C(N=Nc3ccc(S(=O)(=O)CCOS(=O)(=O)O)cc3)C2=O)cc1 (stereo unspecified) | > 100 µM | > 100 µM | > 100 µM | > 100 µM | > 100 µM | > 100 µM | > 100 µM | > 100 µM | > 100 µM | > 100 µM | 
COC(=O)c1ccccc1N=Cc1ccc(N(CCC#N)S(=O)(=O)c2ccccc2)cc1 | > 100 µM | > 100 µM | > 100 µM | > 100 µM | > 100 µM | > 100 µM | > 100 µM | > 100 µM | > 100 µM | > 100 µM | 
COC1=CCC2=C(CCN(C(=O)C3CCC3)C2Cc2ccc(OC)c(O)c2)C1 (stereo unspecified) | > 100 µM | > 100 µM | 25.1 µM | > 100 µM | > 100 µM | > 100 µM | > 100 µM | > 100 µM | > 100 µM | 73.3 µM | 
O=[N+]([O-])c1cc(Cl)ccc1S(=O)(=O)c1cc(Cl)cc2c1NCCC2 | > 100 µM | > 100 µM | > 100 µM | > 100 µM | > 100 µM | > 100 µM | > 100 µM | > 100 µM | > 100 µM | 43.7 µM | 
Cc1nc(N)nc(N)c1N1CCN(Cc2ccccc2)CC1 | > 100 µM | > 100 µM | > 100 µM | > 95.6 µM | > 100 µM | > 100 µM | > 100 µM | > 100 µM | > 100 µM | > 100 µM | 
CCOC(=O)/C=C(/C(=O)OCC)n1ccc(=O)[nH]c1=O | 22.3 µM | 27.4 µM | 9.39 µM | 11.3 µM | 33.8 µM | 2.3 µM | 6.12 µM | 6.55 µM | 3.99 µM | 31 µM | 
CC(C)=CCC/C(C)=C/CC/C(C)=C/CSc1ccc(Cl)cc1C(=O)O | 32 µM | 42.1 µM | 34.7 µM | 55.6 µM | 30.3 µM | 43.5 µM | 49.9 µM | 64.9 µM | 46.9 µM | 44.9 µM | 
CCOC(=O)O/N=C1/C(c2c(O)[nH]c3ccccc23)=Nc2ccccc21 | 26.6 µM | 30.8 µM | 20.4 µM | > 100 µM | 33.1 µM | 14.5 µM | > 100 µM | > 100 µM | > 100 µM | 6.99 µM | 
OC1(c2ccc(Cl)cc2)c2ccccc2C2=NCc3ccccc3CN21 (stereo unspecified) | 24.3 µM | 24.8 µM | 20 µM | > 48.6 µM | 19.2 µM | 37.7 µM | > 47.6 µM | > 58 µM | 15.8 µM | 33.6 µM | 
CCOC(=O)C12C(=O)CCN1CCc1ccccc1C2C (stereo unspecified) | > 100 µM | > 100 µM | > 100 µM | > 100 µM | > 100 µM | > 100 µM | > 100 µM | > 100 µM | > 100 µM | > 100 µM | 
Cc1nn(-c2ccccc2)c2c1N=C(C(=O)O)CC(c1ccccc1)=N2 | > 10 µM | > 10 µM | > 10 µM | > 10 µM | > 10 µM | > 10 µM | > 10 µM | > 10 µM | > 10 µM | > 10 µM | 
CC12CCC(C1)C(C)(C)C2OC(=O)c1ccccc1C(=O)O (stereo unspecified) | > 100 µM | > 100 µM | > 100 µM | > 100 µM | > 100 µM | > 100 µM | > 100 µM | > 100 µM | > 100 µM | > 100 µM | 
CC1CN=C(N(C)C(=O)Nc2ccc(Cl)c(Cl)c2)S1 (stereo unspecified) | 91.4 µM | > 100 µM | 91.5 µM | > 100 µM | > 100 µM | 61.8 µM | > 100 µM | > 100 µM | > 100 µM | 29.9 µM | 
Cc1nc2ccccc2cc1C[N+]12CN3CN(CN(C3)C1)C2 | 32.8 µM | > 100 µM | 47 µM | > 100 µM | > 100 µM | 59.8 µM | > 100 µM | > 100 µM | > 100 µM | 32.8 µM | 
CC(=O)C(C(=O)C(C)(C)C)C(=O)C(C)(C)C | > 100 µM | > 100 µM | > 100 µM | > 100 µM | > 100 µM | > 100 µM | > 100 µM | > 100 µM | > 100 µM | > 100 µM | 
CCOC(=O)CN(Cc1ccccc1)Cc1c(C(=O)c2ccccc2)c2ccccc2n1C(=O)c1ccccc1 | > 100 µM | > 100 µM | > 100 µM | > 100 µM | > 100 µM | > 100 µM | > 100 µM | > 100 µM | > 100 µM | > 100 µM | 
